Read-outs that look alike come from different tables or passages of the source. Numbered stars: 1 amine (or outer) side, 2 acyl side, 3 side chain; on linkers, the order of the positions; unused ones are H or OH. Square brackets hold non-standard residues; d marks the D form. Peptide text beside a SMILES is read from it. ξ: configuration not given here. X1 = CN(C(Cc1cn(Cc2ccc(Br)cc2)c2ccccc12)C(=O)[*:2])[*:1]; ξAla(CF3) = NC(CC(F)(F)F)C(=O)O; X2 = N#CCCC(O[*:1])C(=O)[*:2]; NMeL = CN[CH](CC(C)C)C(=O)O; NMeA = CN[CH](C)C(=O)O
Target: T1, Sec61 (Homo sapiens, UniProt P61619)
T1 construct: endogenous in cells
T1 sequence (P61619 whole entry): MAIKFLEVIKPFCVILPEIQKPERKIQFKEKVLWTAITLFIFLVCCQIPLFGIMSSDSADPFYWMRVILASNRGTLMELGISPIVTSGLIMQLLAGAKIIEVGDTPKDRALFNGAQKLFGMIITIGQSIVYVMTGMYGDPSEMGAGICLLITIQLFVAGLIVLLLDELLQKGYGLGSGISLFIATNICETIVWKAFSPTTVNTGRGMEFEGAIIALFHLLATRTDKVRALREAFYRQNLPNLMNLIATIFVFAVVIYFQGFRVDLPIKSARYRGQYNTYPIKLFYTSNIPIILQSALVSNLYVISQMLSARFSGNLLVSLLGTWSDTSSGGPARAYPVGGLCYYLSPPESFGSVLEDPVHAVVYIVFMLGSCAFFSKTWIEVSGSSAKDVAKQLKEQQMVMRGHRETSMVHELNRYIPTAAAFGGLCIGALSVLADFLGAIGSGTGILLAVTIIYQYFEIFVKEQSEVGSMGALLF
T1 sequence (P60059 whole entry, further chain): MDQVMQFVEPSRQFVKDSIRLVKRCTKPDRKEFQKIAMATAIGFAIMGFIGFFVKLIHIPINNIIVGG
T1 sequence (P60468 whole entry, further chain): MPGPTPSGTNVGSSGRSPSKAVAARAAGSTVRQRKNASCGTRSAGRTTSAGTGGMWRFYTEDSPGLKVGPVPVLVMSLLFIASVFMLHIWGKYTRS
Experiment: signal peptide-GLuc (SP-GLuc) reporter panel, 89 constructs
Format: cell-based
Text: The heat map depicts IC50 values calculated from each SP-GLuc dose–response curve. d, Arthritis was induced in BALB/c mice with antibodies specific for type II collagen (mAb) on day 0 and endotoxin on day 3. On day 4, when the disease was present in all animals, mice were randomized and treated for 2 weeks with thrice weekly (QODx3) or weekly (QW) intravenous administration of vehicle or KZR-8445 or intraperitoneal administration of dexamethasone. Clinical scores (0–4 per paw; n = 10 per group) and body weights were followed until day 14. Data are presented as mean values ± s.d. mAb, monoclonal antibody. Source data
To investigate the effects of KZR-8445 on secretory and membrane protein biogenesis and to establish Sec61α as the relevant target, we quantified the secretion of a doxycycline-inducible Gaussia luciferase (GLuc) reporter fused to the C-terminus of two full-length pro-inflammatory cytokines, interleukin-2 (IL-2) (which contains a cleavable signal peptide) and tumor necrosis factor-alpha (TNFα) (which contains an N-terminal transmembrane anchor). […] KZR-8445 is structurally related to CT8, which discriminates among Sec61 clients based largely on their N-terminal signal peptide. […] We also directly compared KZR-8445 to mycolactone A/B, a structurally distinct and relatively client-nonselective Sec61 inhibitor[8],[25], for their ability to discriminate between vascular cell adhesion molecule (VCAM) and preprolactin (pPL) signal peptides.

For `CC(C)CC1NC(=O)C(Cc2cn(Cc3ccc(Br)cc3)c3ccccc23)N(C)C(=O)C(CC(F)(F)F)NC(=O)C(CC(C)C)N(C)C(=O)C(CC(F)(F)F)NC(=O)C(CCC#N)OC(=O)C(C)N(C)C1=O` (stereo not shown) [KZR-8445] (cyclo([X1]L[NMeA][X2][ξAla(CF3)][NMeL][ξAla(CF3)]); configuration not given here), the IC50 (89 signal peptide-GLuc reporters, 24 h, read-out: highest IC50 in the panel) was > 25 µM, the IC50 (89 signal peptide-GLuc reporters, 24 h, read-out: lowest IC50 in the panel) was 0.005 µM and the IC50 (89 signal peptide-GLuc reporters, 24 h, read-out: median IC50 of the panel) was 0.366 µM. The IC50 (ADPGK SP-GLuc, read-out: log10(IC50 8445) (converted)) was 0.54 µM, the IC50 (ANGPTL3 SP-GLuc, read-out: log10(IC50 8445) (converted)) was 0.0494 µM and the IC50 (APOC1 SP-GLuc, read-out: log10(IC50 8445) (converted)) was 0.135 µM. For the same molecule, the IC50 (APP SP-GLuc, read-out: log10(IC50 8445) (converted)) was 0.449 µM, the IC50 (AXL SP-GLuc, read-out: log10(IC50 8445) (converted)) was 0.0138 µM and the IC50 (BCAN SP-GLuc, read-out: log10(IC50 8445) (converted)) was 0.142 µM. The IC50 (C1S SP-GLuc, read-out: log10(IC50 8445) (converted)) was 0.383 µM, the IC50 (CALCA SP-GLuc, read-out: log10(IC50 8445) (converted)) was 0.721 µM and the IC50 (CALCB SP-GLuc, read-out: log10(IC50 8445) (converted)) was 0.972 µM. For the same molecule, the IC50 (CD40 SP-GLuc, read-out: log10(IC50 8445) (converted)) was 11.3 µM, the IC50 (CD47 SP-GLuc, read-out: log10(IC50 8445) (converted)) was 0.373 µM and the IC50 (CD96 SP-GLuc, read-out: log10(IC50 8445) (converted)) was 0.0292 µM. The IC50 (CD274 SP-GLuc, read-out: log10(IC50 8445) (converted)) was 0.0933 µM, the IC50 (CDH1 SP-GLuc, read-out: log10(IC50 8445) (converted)) was 0.811 µM and the IC50 (CDH2 SP-GLuc, read-out: log10(IC50 8445) (converted)) was 0.0155 µM. The IC50 (CDH5 SP-GLuc, read-out: log10(IC50 8445) (converted)) was 0.076 µM, the IC50 (CNPY2 SP-GLuc, read-out: log10(IC50 8445) (converted)) was 0.394 µM and the IC50 (CPD SP-GLuc, read-out: log10(IC50 8445) (converted)) was 0.694 µM. It also gave an IC50 (CR1L SP-GLuc, read-out: log10(IC50 8445) (converted)) of 0.0613 µM, an IC50 (CSF2RB SP-GLuc, read-out: log10(IC50 8445) (converted)) of 0.652 µM and an IC50 (CTLA4 SP-GLuc, read-out: log10(IC50 8445) (converted)) of 0.343 µM. For the same molecule, the IC50 (DDRGK1 SP-GLuc, read-out: log10(IC50 8445) (converted)) was 1.85 µM, the IC50 (DMKN SP-GLuc, read-out: log10(IC50 8445) (converted)) was 2.63 µM and the IC50 (DNAJB11 SP-GLuc, read-out: log10(IC50 8445) (converted)) was 4.36 µM. For the same molecule, the IC50 (ERBB2 SP-GLuc, read-out: log10(IC50 8445) (converted)) was 0.536 µM, the IC50 (F3 SP-GLuc, read-out: log10(IC50 8445) (converted)) was 0.162 µM and the IC50 (FGF23 SP-GLuc, read-out: log10(IC50 8445) (converted)) was 0.0282 µM. For the same molecule, the IC50 (FLT3 SP-GLuc, read-out: log10(IC50 8445) (converted)) was 0.36 µM, the IC50 (FNDC10 SP-GLuc, read-out: log10(IC50 8445) (converted)) was 0.726 µM and the IC50 (FURIN SP-GLuc, read-out: log10(IC50 8445) (converted)) was 4.74 µM. For the same molecule, the IC50 (GAS6 SP-GLuc, read-out: log10(IC50 8445) (converted)) was 0.118 µM, the IC50 (HJV SP-GLuc, read-out: log10(IC50 8445) (converted)) was 0.427 µM and the IC50 (HLA-G SP-GLuc, read-out: log10(IC50 8445) (converted)) was 0.0392 µM. For the same molecule, the IC50 (HSPA13 SP-GLuc, read-out: log10(IC50 8445) (converted)) was 1.11 µM, the IC50 (IGF1R SP-GLuc, read-out: log10(IC50 8445) (converted)) was 0.814 µM and the IC50 (IL1RAP SP-GLuc, read-out: log10(IC50 8445) (converted)) was 0.101 µM. The IC50 (IL4R SP-GLuc, read-out: log10(IC50 8445) (converted)) was 0.032 µM, the IC50 (IL4 SP-GLuc, read-out: log10(IC50 8445) (converted)) was 0.359 µM and the IC50 (IL5RA SP-GLuc, read-out: log10(IC50 8445) (converted)) was 1.31 µM. The IC50 (IL5 SP-GLuc, read-out: log10(IC50 8445) (converted)) was 1.3 µM, the IC50 (IL6R SP-GLuc, read-out: log10(IC50 8445) (converted)) was 0.0923 µM and the IC50 (IL6 SP-GLuc, read-out: log10(IC50 8445) (converted)) was 0.155 µM. The IC50 (IL6ST SP-GLuc, read-out: log10(IC50 8445) (converted)) was 0.0565 µM, the IC50 (IL7 SP-GLuc, read-out: log10(IC50 8445) (converted)) was 0.00523 µM and the IC50 (IL10 SP-GLuc, read-out: log10(IC50 8445) (converted)) was 0.434 µM. For the same molecule, the IC50 (IL11 SP-GLuc, read-out: log10(IC50 8445) (converted)) was 0.183 µM, the IC50 (IL12B SP-GLuc, read-out: log10(IC50 8445) (converted)) was 0.109 µM and the IC50 (IL12RB1 SP-GLuc, read-out: log10(IC50 8445) (converted)) was 0.0644 µM. It also gave an IC50 (IL13 SP-GLuc, read-out: log10(IC50 8445) (converted)) of 0.0591 µM.
